In patent US7632972B2, “Compounds and methods for treatment of cancer and modulation of programmed cell death for melanoma and other cancer cells” (The Board of Trustees of the University of Illionis, priority 2003, dated 2009):

Assays:
MDA-MB-231/ATCC = assay: NCI 60 cell line screen (SRB), Breast Cancer; assay type: cell-based, human
Description: (§1) The operation of this screen utilizes 60 different human tumor cell lines, representing leukemia, melanoma and cancers of the lung, colon, brain, ovary, breast, prostate, and kidney. The aim is to prioritize for further evaluation, synthetic compounds or natural product samples showing selective growth inhibition or cell killing of particular tumor cell lines. This screen is unique in that the complexity of a 60 cell line dose response produced by a given compound results in a biological response pattern which can be utilized in pattern recognition algorithms. Using these algorithms, it is possible to assign a putative mechanism of action to a test compound, or to determine that the response pattern is unique and not similar to that of any of the standard prototype compounds included in the NCl database (see DTP Overview tab). In addition, following characterization of various cellular molecular targets in the 60 cell lines, it may be possible to select compounds most likely to interact with a specific molecular target.
(§2) The human tumor cell lines of the cancer screening panel are grown in RPMI 1640 medium containing 5% fetal bovine serum and 2 mM L-glutamine. For a typical screening experiment, cells are inoculated into 96 well microtiter plates in 100 μL at plating densities ranging from 5,000 to 40,000 cells/well depending on the doubling time of individual cell lines. After cell inoculation, the microtiter plates are incubated at 37° C., 5% CO2, 95% air and 100% relative humidity for 24 h prior to addition of experimental drugs.
(§3) After 24 h, two plates of each cell line are fixed in situ with TCA, to represent a measurement of the cell population for each cell line at the time of drug addition (Tz). Experimental drugs are solubilized in dimethyl sulfoxide at 400-fold the desired final maximum test concentration and stored frozen prior to use. At the time of drug addition, an aliquot of frozen concentrate is thawed and diluted to twice the desired final maximum test concentration with complete medium containing 50 μg/ml gentamicin. Additional four, 10-fold or ½ log serial dilutions are made to provide a total of five drug concentrations plus control. Aliquots of 100 μl of these different drug dilutions are added to the appropriate microtiter wells already containing 100 μl of medium, resulting in the required final drug concentrations.
(§4) Following drug addition, the plates are incubated for an additional 48 h at 37° C., 5% CO2, 95% air, and 100% relative humidity. For adherent cells, the assay is terminated by the addition of cold TCA. Cells are fixed in situ by the gentle addition of 50 μl of cold 50% (w/v) TCA (final concentration, 10% TCA) and incubated for 60 minutes at 4° C. The supernatant is discarded, and the plates are washed five times with tap water and air dried. Sulforhodamine B (SRB) solution (100 μl) at 0.4% (w/v) in 1% acetic acid is added to each well, and plates are incubated for 10 minutes at room temperature. After staining, unbound dye is removed by washing five times with 1% acetic acid and the plates are air dried. Bound stain is subsequently solubilized with 10 mM trizma base, and the absorbance is read on an automated plate reader at a wavelength of 515 nm. For suspension cells, the methodology is the same except that the assay is terminated by fixing settled cells at the bottom of the wells by gently adding 50 μl of 80% TCA (final concentration, 16% TCA). Using the seven absorbance measurements [time zero, (Tz), control growth, (C), and test growth in the presence of drug at the five concentration levels (Ti)], the percentage growth is calculated at each of the drug concentrations levels. Percentage growth inhibition is calculated as: [(Ti−Tz)/(C−Tz)]×100 for concentrations for which Ti>/=Tz [(Ti−Tz)/Tz]×100 for concentrations for which Ti<Tz.
(§5) Three dose response parameters are calculated for each experimental agent. […]

MCF7 = assay: NCI 60 cell line screen (SRB), Breast Cancer; assay type: cell-based, human
Description: as §1, §2, §3, §4, §5

BT-549 = assay: NCI 60 cell line screen (SRB), Breast Cancer; assay type: cell-based, human
Description: as §1, §2, §3, §4, §5

NCI/ADR-RES = assay: NCI 60 cell line screen (SRB), Breast Cancer; assay type: cell-based, human
Description: as §1, §2, §3, §4, §5

[1] = read-out: LC50 (the source's name)

## COc1cccc(CCNC(=O)CC(c2ccccc2)(c2ccccc2)c2ccccc2)c1 [Compound Z3]
MDA-MB-231/ATCC
  GI50: > 100 µM
  TGI: >1.00E−04
MDA-MB-231/ATCC; Log10 Concentration −4.0
  Percent Growth: 147%
MDA-MB-231/ATCC; Log10 Concentration −5.0
  Percent Growth: 75%
MDA-MB-231/ATCC; Log10 Concentration −6.0
  Percent Growth: 59%
MDA-MB-231/ATCC; Log10 Concentration −7.0
  Percent Growth: 69%
MDA-MB-231/ATCC; Log10 Concentration −8.0
  Percent Growth: 68%
MDA-MB-231/ATCC; [1]
  CC50: > 100 µM
MCF7; MCF7
  GI50: 21.5 µM
  TGI: >1.00E−04
MCF7; MCF7, Log10 Concentration −4.0
  Percent Growth: 31%
MCF7; MCF7, Log10 Concentration −5.0
  Percent Growth: 60%
MCF7; MCF7, Log10 Concentration −6.0
  Percent Growth: 85%
MCF7; MCF7, Log10 Concentration −7.0
  Percent Growth: 116%
MCF7; MCF7, Log10 Concentration −8.0
  Percent Growth: 91%
MCF7; MCF7, read-out: LC50 (the source's name)
  CC50: > 100 µM
BT-549; BT-549
  GI50: > 100 µM
  TGI: >1.00E−04
BT-549; BT-549, Log10 Concentration −4.0
  Percent Growth: 69%
BT-549; BT-549, Log10 Concentration −5.0
  Percent Growth: 81%
BT-549; BT-549, Log10 Concentration −6.0
  Percent Growth: 107%
BT-549; BT-549, Log10 Concentration −7.0
  Percent Growth: 126%
BT-549; BT-549, Log10 Concentration −8.0
  Percent Growth: 100%
BT-549; BT-549, read-out: LC50 (the source's name)
  CC50: > 100 µM
NCI/ADR-RES
  GI50: 5.26 µM
  TGI: >1.00E−04
NCI/ADR-RES; Log10 Concentration −4.0
  Percent Growth: 27%
NCI/ADR-RES; Log10 Concentration −5.0
  Percent Growth: 42%
NCI/ADR-RES; Log10 Concentration −6.0
  Percent Growth: 69%
NCI/ADR-RES; Log10 Concentration −7.0
  Percent Growth: 93%
NCI/ADR-RES; Log10 Concentration −8.0
  Percent Growth: 69%
NCI/ADR-RES; [1]
  CC50: > 100 µM
HL-60(TB)
  GI50: 17.5 µM
  TGI: >1.00E−04
HL-60(TB); read-out: LC50
  CC50: > 100 µM
